Literature values in patent publication US9126163B2, “Nanoemulsions and processes for their preparation, and their use as formulations of plant protection agents and/or pesticides and/or cosmetic preparations” (Evonik Degussa GmbH, priority 2008, dated 2015).
In brackets after ≈: the same amount, converted by molar mass.

Row | Molecule | solubility in water
1 | Cc1c(COC(=O)[C@@H]2[C@H](/C=C(\Cl)C(F)(F)F)C2(C)C)cccc1-c1ccccc1 (racemic) [bifenthrin] | < 0.001 mg/L
2 | Fc1ccc([C@]2(Cn3cncn3)O[C@H]2c2ccccc2Cl)cc1 (racemic) [epoxyconazole] | 6.63*10^−4 g/100 ml
3 | CO/C=C(/C(=O)OC)c1ccccc1Oc1cc(Oc2ccccc2C#N)ncn1 [azoxystrobin] | 6 mg/L (≈ 14.9 µM)
4 | COC(=O)Nc1nc2ccccc2[nH]1 [carbendazim] | 29 mg/L (≈ 152 µM)
5 | O=C(Nc1ccc([N+](=O)[O-])cc1Cl)c1cc(Cl)ccc1O [niclosamide] | 100 mg/L (≈ 306 µM)
6 | COc1cc(OC)nc(NC(=O)NS(=O)(=O)c2ncccc2C(=O)N(C)C)n1 [nicosulfuron] | 70 mg/L (≈ 171 µM)
7 | CC1(C)C(C=C(Cl)Cl)C1C(=O)OCc1cccc(Oc2ccccc2)c1 (stereo not shown) [permethrin] | 0.006 mg/L (≈ 0.0153 µM)
8 | CCCCCCCCCCCCCN1CC(C)OC(C)C1 (stereo not shown) [tridemorph] | 1.1 mg/L (≈ 3.7 µM)
9 | abamectin | 0.007 to 0.01 mg/L
10 | mancozeb | 6.2 ppm
